Values quoted from earlier work, collected in patent publication US12576017B2, “Sunscreen composition with enhanced photoprotection” (Edgewell Personal Care Brands, LLC, priority 2021, dated 2026).

conditions: lipid/water partition

**Q.** For `CCOC(=O)c1ccc(N(CC(C)O)CC(C)O)cc1` (stereo not shown) [Ethyl dihydroxypropyl PABA, Ethyl-4-bis(2-hydroxypropyl-aminobenzoate)], which “Log P @25° C.” value is on record?
**A.** 2.84

**Q.** For `CCOCCOC(=O)/C=C/c1ccc(OC)cc1` [Cinoxate, Ethoxyethyl methoxy cinnamate], which “Log P @25° C.” value is on record?
**A.** 2.55

**Q.** Which “Log P @25° C.” value does the source give for `COc1ccc(C(=O)c2ccccc2O)c(O)c1` [Benzophenone-8, 2,2′-dihydroxy-4-methoxybenzophenone] here?
**A.** 2.15

**Q.** For `Nc1ccc(C(=O)O)cc1` [PABA, p-Amino benzoic acid], which “Log P @25° C.” value is on record?
**A.** 0.74

**Q.** For `CC1CCC(C(C)C)C(OC(=O)c2ccccc2N)C1` (stereo not shown) [Menthyl anthranilate, Menthyl-O aminobenzoate], which “Log P @25° C.” value is on record?
**A.** 5.05

**Q.** With `CCCCC(CC)COC(=O)c1ccccc1O` (stereo not shown) [Octyl salicylate, 2-Ethylhexyl salicylate] as the compound, how does the “Log P @25° C.” value read?
**A.** 5.30

**Q.** For `COc1ccc(C(=O)c2ccccc2)c(O)c1` [Benzophenone-3, 2-hydroxy-4-methoxybenzophenone], which “Log P @25° C.” value is on record?
**A.** 2.63

**Q.** Which “Log P @25° C.” value does the source give for `Nc1ccc(C(=O)OCC(O)CO)cc1` (stereo not shown) [Glyceryl PABA, 1,2,3-Propanetriol,1-(4-aminobenzoate)] here?
**A.** −0.02

**Q.** With `CCCCC(CC)COC(=O)c1ccc(N(C)C)cc1` (stereo not shown) [Octyl dimethyl PABA, 2-Ethylhexyl-p-dimethyl aminobenzoate] as the compound, how does the “Log P @25° C.” value read?
**A.** 6.08

**Q.** For `COc1cc(O)c(C(=O)c2ccccc2)cc1S(=O)(=O)O` [Benzophenone-4, 2-hydroxy-4-methoxybenzophenone-5-sulfonic acid], which “Log P @25° C.” value is on record?
**A.** −1.51

**Q.** For `CC1CC(OC(=O)c2ccccc2O)CC(C)(C)C1` (stereo not shown) [Homosalate, Homomenthyl salicylate], which “Log P @25° C.” value is on record?
**A.** 5.61

**Q.** Which “Log P @25° C.” value does the source give for `CCCCC(CC)COC(=O)C(C#N)=C(c1ccccc1)c1ccccc1` (stereo not shown) [Octocrylene, Octyl cyanodiphenylacrylate] here?
**A.** 5.69

**Q.** Which “Log P @25° C.” value does the source give for `CCCCC(CC)COC(=O)C=Cc1ccc(OC)cc1` (stereo not shown) [Octyl methoxy cinnamate, Ethylhexyl-p-methoxy cinnamate] here?
**A.** 5.65
